In article PMC9611370 (Viruses, 2022):
Where two headings read alike, the source gives them in different places.

Key:
[1] = test system: PHA-stimulated human PBMCs; experiment: Cytotoxicity assay (MTT) in uninfected PBMCs; type: cell-based
HIV-1NL4-3 = experiment: In vitro antiviral assay (p24 ELISA) in PHA-stimulated human PBMCs; settings: for IC50: read-out: NL4-3 Antiviral (PBMC) IC50; for IC90: read-out: NL4-3 Antiviral (PBMC) IC90
[2] = Human immunodeficiency virus 1, NL43, PBMC, in Homo sapiens, 168 h
[3] = PHA-stimulated human PBMCs, 7 days, p24 ELISA

| Structure (SMILES) | cytotoxicity better than NBD-14189 ([1]; PBMC, compared with NBD-14189) | IC50 (HIV-1NL4-3; [2]) | IC90 (HIV-1NL4-3; [2]) | CC50 ([1]; uninfected PBMCs, MTT, day 7, read-out: PBMC Toxicity CC50) | CC90 ([1]; uninfected PBMCs, MTT, day 7, read-out: PBMC Toxicity CC90) | SI CC50/IC50 (HIV-1NL4-3; PBMC CC50 / NL4-3 IC50) | IC50 (HIV-1NL4-3; [3]) | IC90 (HIV-1NL4-3; [3]) |
| --- | --- | --- | --- | --- | --- | --- | --- | --- |
| COc1cnc(-n2cnc(C)n2)c2[nH]cc(C(=O)C(=O)N3CCN(C(=O)c4ccccc4)CC3)c12 [BMS-626529] | about 3 fold | 0.28 µM | > 10 µM | – | – | – | – | – |
| C#C[C@]1(CO)O[C@@H](n2cnc3c(N)nc(F)nc32)C[C@@H]1O [EFdA] | – | – | – | 23 µM | > 100 µM | 13,000 | 0.0017 µM | > 0.066 µM |
